The record followed here is patent publication US20070244076A1, “Site and Rate Selective Prodrug Formulations of D609 with Antioxidant and Anticancer Activity” (priority 2003, published 2007).

Marks after values point to notes of the source that are not given here.

One data set has as its system U937 cells. Kind of data set: MTT cell viability, U937 cells. The class given is cell-based, Human. Particulars: for LD50: 48 h. Here is the method: Cell viability assay: The MTT assay was used to quantify viable U937 cells (Hansen et al., 1989). U937 cells were harvested, washed and resuspended in complete medium at a concentration of 5×10^5 cells per ml. Aliquots (100 μl) of the cell suspension were added to wells of a 96-well microtiter plate with the addition of 100 μl of complete medium (control) or various concentrations of D609 or a D609 prodrug (diluted in complete medium). After 48 h incubation, the plates were centrifuged to remove the supernatants from the culture, and 50 μl of MTT at a concentration of 5 mg/ml in phosphate-buffered saline (PBS) was added to each well. The plates were incubated for 4 h at 37° C. to allow for the formation of a colored formazan. The formazan was solubilized by lysing the cells with 100 μl of lysis buffer containing 20 (w/v) % dodecylsulfate and 50 (v/v) % N,N-dimethyl formamide, pH 4.7. Absorbance of the formazan was measured at 595 nm using a Vmax plate reader (Molecular Devices, Sunnyvale, Calif.). The viability of the cells was expressed as a percent of control calculated by the formula Ad/Ac×100, where Ad and Ac, represent the absorbance of drug-treated and untreated control cells, respectively, and expressed as a percentage of control.
In this study, p-nitrophenyl-phosphorylcholine (pNPP, 40 mM) was incubated with 2 U/ml phospholipase C (Type XI from B. cereus) in the presence or absence of various concentrations of inhibitors for 2 hrs at 37° C. The amount of the cleaved substrate pNPP was quantified by determination of the optical density at 410 nm using an ELISA reader. The results are expressed as percent of vehicle control and presented as means±SEM (n=3) (FIG. 9A). NBD-C6-ceramide and PC were incubated with U937 cell lysates containing 50 μg protein in the presence or absence of various concentrations of inhibitors for 30 min at 30° C. The formation of NBD-C6-sphingomyelin as analyzed by TLC and quantified by determination of the fluorescent intensity of NBD-C6-sphingomyelin using a phosphorimager. The results are expressed as percent of vehicle control (FIG. 9B). […]

The test system of data set [1] is Jurkat T-cell leukemia cells. Kind of data set: MTT cell viability, Jurkat cells. The class given is cell-based, human.
Data set [2] concerns STM91-01 malignant rhabdoid tumor cells. Kind of data set: MTT cell viability, STM91-01 cells. Format: cell-based, human.
For data set [3], the system named is normal human diploid fibroblasts-WI38 cells. Kind of data set: MTT cell viability, WI38 normal fibroblasts. The class given is cell-based. Particulars: for LD50: normal cells.
The subject of data set [4] is sphingomyelin synthase (SMS). Description: Cellular SMS activity in U937 cells treated with drug. Format: cell-based, Human. Particulars: for inhibition of SMS activity: 177 μM, 0.5, 1 and 2 h. The protocol:
Analysis of sphingomyelin synthase (SMS) activity: U937 cells (2×10^6/ml) were cultured with vehicle (0.5% DMSO) or 177 μM D609 or prodrug 2. After 0.5, 1 and 2 h incubation, the cells were harvested, washed and then homogenized in ice-cold lysis buffer (250 mM sucrose; 5 mM HEPES, pH 7.4; 1 mM phenylmethylsulfonyl fluoride; and 20 μg/ml each of chymostatin, leupeptin, antipain, and pepstatin) by 15 passages through a 27-gauge×0.5-inch needle. The cell lysates were first centrifuged at 1000×g for 10 min at 4° C. to remove all the unbroken cells and nuclei. The resultant supernatants were quantified for protein concentration using the Bio-Rad protein assay reagent (Bio-Rad, Hercules, Calif.) and assayed for SMS activity as follows: aliquots of the cell lysates containing 50 μg protein were preincubated for 10 min at 30° C. in a total volume of 50 μl of incubation buffer (50 mM Tris-HCl, pH 7.4; 25 mM KCl; and 0.5 mM EDTA). The reaction was started by addition of 2 nmol NBD C6-ceramide and 12 nmol PC to give a final volume of 50 μl and incubated for 30 min. The reaction was stopped by addition of 200 μl chloroform/methanol (1:1, v/v); the mixture was vortexed and kept on ice. The chloroform/methanol fraction was isolated, and the lipids were resolved by TLC (silica gel) in chloroform:methanol:15 mM CaCl2 (90:52.5:12) (Luberto and Hannun, 1998; Meng et al., 2004). The formation of NBD-C6-sphingomyelin was quantified by determination of the fluorescent intensity of NBD-C6-sphingomyelin using a phosphoimager. Values for blanks were subtracted from total values of NBD-C6-sphingmyelin to yield the amount of NBD-C6-sphingmyelin produced in each sample.
To validate if inhibition of SMS may mediate D609-induced tumor cell death, the cellular level of SMS activity in U937 cells treated with vehicle or D609 were studied. […] NBD-C6-ceramide and PC were incubated with the cell lysates containing 50 μg proteins for 30 min at 30° C. The formation of NBD-C6-sphingomyelin was analyzed by TLC and quantified by determination of the fluorescent intensity of NBD-C6-sphingomyelin using a phosphoimager. The results, shown in FIGS. 10B-10D, are expressed as percent of the control cultures with vehicle and presented as means±SEM (n=3). […] The levels of ceramide (FIG. 10B) and DAG (FIG. 10C) were analyzed by the DAG kinase assay, normalized to the levels of cellular phospholipid and expressed as pmole/nmole phophate (pi) or the ratio of ceramide and DAG (FIG. 10D). The results represent means±SEM (n=3).

Data set [5] concerns ceramide levels in U937 cells. Description: Ceramide profile in U937 cells by ESI/MS/MS. The class given is cell-based, Human. Particulars: for increase in the level of total ceramide compared to vehicle-treated cells: 177 μM; for C14-Cer / C16-Cer / C18-Cer / C20-Cer / C24-Cer / C24:1-Cer / Total-Cer / dhC16-Cer: 177 µM, 4 h. Here is the method:
ESI/MS/MS analysis of ceramide was performed on a Thermo Finnigan TSQ 7000 triple quadruple mass spectrometer, operating in a multiple reaction monitoring (MRM) positive ionization mode. U937 cells (4×10^6/sample) were washed twice with PBS after they were harvested from cultures. […] An aliquot of the lipid extracts was taken for inorganic phosphate determination and the remainder was evaporated to dryness and reconstituted in 100 μL of methanol. The reconstituted samples were injected on the Surveyor/TSQ 7000 LC/MS system and gradient was eluted from the BDS Hypersil C8, 150×3.2 mm, 3 μm particle size column, with 1.0 mM methanolic ammonium formate/2 mM aqueous ammonium formate mobile phase system. Peaks for the target analytes and internal standards were collected and processed using the Xcalibur software system. Various species of ceramide were quantified using N-palmitoyl-D-erythro-sphingosine, C13 base (C13 ceramide) and N-heptadecanoyl-D-erythro-sphingosine, C18 base (C18 ceramide) as internal calibration standards. Calibration curves were constructed by plotting peak area ratios of synthetic standards corresponding to each target analyte with respect to the appropriate internal standard. The target analyte peak areas from the samples were similarly normalized to their respective internal standard then compared with the calibration curves using a linear regression model. The results are expressed as pmole ceramide/nmole lipid phosphate (Pi).

`CCCC(=O)OCSC(=S)OC1CC2CC1C1CCCC21` (centres unmarked) [Prodrug 2, S-methyleneoxybutyryl D609] gave an LD50 in the data set on U937 cells of 56.6 µM. The same molecule came in with an LD50 in data set [1] of 44.26 µM. The molecule also had an LD50 in data set [2] of 87.10 µM. The molecule also came in with an LD50 in data set [3] of 333.43 µM. For the same molecule, the “inhibition of SMS activity” value in data set [4] was “significantly greater”. In data set [5], the “increase in the level of total ceramide compared to vehicle-treated cells” value was determined as 1.84 fold, the C14-Cer is reported as 0.054^a,b pmole ceramide/nmole lipid Pi, the C16-Cer is 1.713^a pmole ceramide/nmole lipid Pi and the C18-Cer was 0.262^a pmole ceramide/nmole lipid Pi. Also, in data set [5], the C20-Cer was 0.031^a pmole ceramide/nmole lipid Pi, the C24-Cer is recorded as 0.482^a pmole ceramide/nmole lipid Pi, the “C24:1-Cer” value is 0.863^a,b pmole ceramide/nmole lipid Pi and the Total-Cer is on record as 4.358^a,b pmole ceramide/nmole lipid Pi. For the same molecule, the dhC16-Cer in data set [5] was 0.951^a,b pmole ceramide/nmole lipid Pi.

In the data set on U937 cells, `S=C([S-])OC1CC2CC1C1CCCC21.[K+]` (centres unmarked) [Prodrug D609, Tricyclodecan-9-yl-xanthogenate] came in with an LD50 of 117 µM. Further, in the data set on U937 cells (48 hours), the “U937 cell death / cell viability” value is recorded as “induced significant cell death”. This molecule also gave an LD50 in data set [1] of 63.97 µM. The LD50 in data set [2] amounted to 545.75 µM. Further, the cell viability result in data set [3] (48 hours) is “relatively resistant”. In addition, the LD50 in data set [3] was 267.51 µM. Besides, the “inhibition of SMS activity” value in data set [4] is on record as “time-dependent inhibition of SMS activity”. Also, in data set [4] (U937 cells cultured 2 hrs), the IC50 (in general, the concentration needed to halve the response being measured) was around 90 µM and the “IC50, SMS activity” value is around 23.8 µg/mL. Besides, in data set [5], the “increase in the level of total ceramide compared to vehicle-treated cells” value is on record as “about 1.61 fold”, the C14-Cer is 0.038^a pmole ceramide/nmole lipid Pi, the C16-Cer is 1.612^a pmole ceramide/nmole lipid Pi and the C18-Cer was 0.213^a pmole ceramide/nmole lipid Pi. Moreover, in data set [5], the C20-Cer is listed as 0.036^a pmole ceramide/nmole lipid Pi, the C24-Cer is 0.416 pmole ceramide/nmole lipid Pi, the “C24:1-Cer” value is 0.669^a pmole ceramide/nmole lipid Pi and the Total-Cer is given as 3.816^a pmole ceramide/nmole lipid Pi. The dhC16-Cer in data set [5] is on record as 0.832^a pmole ceramide/nmole lipid Pi.
